Test results taken from ChEMBL document CHEMBL3044807, “Synthesis and biological evaluation of new ozonides with improved plant growth regulatory activity” (2009).

Test system: Cucumis sativus
Assay: Phytotoxic activity against Cucumis sativus (cucumber) assessed as aerial part growth inhibition at 5.0 x 10^-4 mol/l measured 15 days after seed sowing under greenhouse trials (reference value: 0.0%)
Type: functional
Details: 360 h

| SMILES | inhibition at 500 µM [%] |
| --- | --- |
| CC12OC(C3OOC1O3)C1CCCCC2C1=O (mixture of isomers) | 63.9 |
| CC12OOC(O1)C1OC2(C)C2CCCCC1C2=O (mixture of isomers) | 29.9 |
| CC1CCC23OOC(C)(O2)C2OC3(C1)C(C)C(=O)C2C (mixture of isomers) | 36.9 |
| CCC1C(=O)C(CC)C23CC(C)CCC24OOC(C)(O4)C1O3 (mixture of isomers) | 36 |

Test system: Cucumis sativus
Assay: Phytotoxic activity against Cucumis sativus (cucumber) assessed as weight of aerial parts at 5.0 x 10^-4 mol/l measured 15 days after seed sowing under greenhouse trials (reference value: 47.0 mg)
Type: functional
Details: not given

| SMILES | Activity [mg] |
| --- | --- |
| CC12OC(C3OOC1O3)C1CCCCC2C1=O (mixture of isomers) | 17 |
| CC12OOC(O1)C1OC2(C)C2CCCCC1C2=O (mixture of isomers) | 32.9 |
| CC1CCC23OOC(C)(O2)C2OC3(C1)C(C)C(=O)C2C (mixture of isomers) | 29.7 |
| CCC1C(=O)C(CC)C23CC(C)CCC24OOC(C)(O4)C1O3 (mixture of isomers) | 30.1 |

Test system: Sorghum bicolor
Assay: Phytotoxic activity against Sorghum bicolor seedlings assessed as inhibition of radicle growth at 5x10'-4 mol/l at 28 +/-1 degC after 48 hr by acid-washed sand based radicle elongation assay (reference value: 0.0%)
Type: functional
Details: not given

| SMILES | inhibition at 500 µM [%] |
| --- | --- |
| CC12OC(C3OOC1O3)C1CCCCC2C1=O (mixture of isomers) | 71.5 |
| CC12OOC(O1)C1OC2(C)C2CCCCC1C2=O (mixture of isomers) | 80.2 |
| CC1CCC23OOC(C)(O2)C2OC3(C1)C(C)C(=O)C2C (mixture of isomers) | 72.1 |
| CCC1C(=O)C(CC)C23CC(C)CCC24OOC(C)(O4)C1O3 (mixture of isomers) | 55.1 |

Test system: Sorghum bicolor
Assay: Phytotoxic activity against Sorghum bicolor assessed as weight of aerial parts at 5.0 x 10^-4 mol/l measured 15 days after seed sowing under greenhouse trials (reference value: 19.0 mg)
Type: functional
Details: not given

| SMILES | Activity [mg] |
| --- | --- |
| CC12OC(C3OOC1O3)C1CCCCC2C1=O (mixture of isomers) | 15.4 |
| CC12OOC(O1)C1OC2(C)C2CCCCC1C2=O (mixture of isomers) | 11.1 |
| CC1CCC23OOC(C)(O2)C2OC3(C1)C(C)C(=O)C2C (mixture of isomers) | 17.7 |
| CCC1C(=O)C(CC)C23CC(C)CCC24OOC(C)(O4)C1O3 (mixture of isomers) | 11.5 |

Test system: Sorghum bicolor
Assay: Phytotoxic activity against Sorghum bicolor assessed as weight of roots at 5.0 x 10^-4 mol/l measured 15 days after seed sowing under greenhouse trials (reference value: 14.0 mg)
Type: functional
Details: not given

| SMILES | Activity [mg] |
| --- | --- |
| CC12OC(C3OOC1O3)C1CCCCC2C1=O (mixture of isomers) | 12.7 |
| CC12OOC(O1)C1OC2(C)C2CCCCC1C2=O (mixture of isomers) | 9.2 |
| CC1CCC23OOC(C)(O2)C2OC3(C1)C(C)C(=O)C2C (mixture of isomers) | 12.7 |
| CCC1C(=O)C(CC)C23CC(C)CCC24OOC(C)(O4)C1O3 (mixture of isomers) | 13.1 |

Test system: Cucumis sativus
Assay: Phytotoxic activity against Cucumis sativus (cucumber) seedlings assessed as inhibition of radicle growth at 5x10'-4 mol/l at 28 +/-1 degC after 48 hr by acid-washed sand based radicle elongation assay (reference value: 0.0%)
Type: functional
Details: not given

| SMILES | inhibition at 500 µM [%] |
| --- | --- |
| CC12OC(C3OOC1O3)C1CCCCC2C1=O (mixture of isomers) | 52 |
| CC12OOC(O1)C1OC2(C)C2CCCCC1C2=O (mixture of isomers) | 84.2 |
| CC1CCC23OOC(C)(O2)C2OC3(C1)C(C)C(=O)C2C (mixture of isomers) | 39.9 |
| CCC1C(=O)C(CC)C23CC(C)CCC24OOC(C)(O4)C1O3 (mixture of isomers) | 55.6 |

Test system: Cucumis sativus
Assay: Phytotoxic activity against Cucumis sativus (cucumber) seedlings assessed as germination at 5x10'-4 mol/l at 28 +/-1 degC after 48 hr by acid-washed sand based radicle elongation assay (reference value: 100%)
Type: functional
Details: not given

| SMILES | germination % at 500 µM [%] |
| --- | --- |
| CC12OC(C3OOC1O3)C1CCCCC2C1=O (mixture of isomers) | 70 |
| CC12OOC(O1)C1OC2(C)C2CCCCC1C2=O (mixture of isomers) | 100 |
| CC1CCC23OOC(C)(O2)C2OC3(C1)C(C)C(=O)C2C (mixture of isomers) | 93 |
| CCC1C(=O)C(CC)C23CC(C)CCC24OOC(C)(O4)C1O3 (mixture of isomers) | 96 |

Test system: Cucumis sativus
Assay: Phytotoxic activity against Cucumis sativus (cucumber) seedlings assessed as radicle length at 5x10'-4 mol/l at 28 +/-1 degC after 48 hr by acid-washed sand based radicle elongation assay (reference value: 4.8 cm)
Type: functional
Details: not given

| SMILES | Activity [cm] |
| --- | --- |
| CC12OC(C3OOC1O3)C1CCCCC2C1=O (mixture of isomers) | 2.3 |
| CC12OOC(O1)C1OC2(C)C2CCCCC1C2=O (mixture of isomers) | 0.8 |
| CC1CCC23OOC(C)(O2)C2OC3(C1)C(C)C(=O)C2C (mixture of isomers) | 2.9 |
| CCC1C(=O)C(CC)C23CC(C)CCC24OOC(C)(O4)C1O3 (mixture of isomers) | 2.1 |

Test system: Sorghum bicolor
Assay: Phytotoxic activity against Sorghum bicolor assessed as root growth inhibition at 5.0 x 10^-4 mol/l measured 15 days after seed sowing under greenhouse trials (reference value: 0.0%)
Type: functional
Details: 360 h

| SMILES | inhibition at 500 µM [%] |
| --- | --- |
| CC12OC(C3OOC1O3)C1CCCCC2C1=O (mixture of isomers) | 11.8 |
| CC12OOC(O1)C1OC2(C)C2CCCCC1C2=O (mixture of isomers) | 34.6 |
| CC1CCC23OOC(C)(O2)C2OC3(C1)C(C)C(=O)C2C (mixture of isomers) | 9.1 |
| CCC1C(=O)C(CC)C23CC(C)CCC24OOC(C)(O4)C1O3 (mixture of isomers) | 6.5 |

Test system: Sorghum bicolor
Assay: Phytotoxic activity against Sorghum bicolor seedlings assessed as radicle length at 5x10'-4 mol/l at 28 +/-1 degC after 48 hr by acid-washed sand based radicle elongation assay (reference value: 5.1 cm)
Type: functional
Details: not given

| SMILES | Activity [cm] |
| --- | --- |
| CC12OC(C3OOC1O3)C1CCCCC2C1=O (mixture of isomers) | 1.5 |
| CC12OOC(O1)C1OC2(C)C2CCCCC1C2=O (mixture of isomers) | 1 |
| CC1CCC23OOC(C)(O2)C2OC3(C1)C(C)C(=O)C2C (mixture of isomers) | 1.4 |
| CCC1C(=O)C(CC)C23CC(C)CCC24OOC(C)(O4)C1O3 (mixture of isomers) | 2.3 |

Test system: Cucumis sativus
Assay: Phytotoxic activity against Cucumis sativus (cucumber) assessed as weight of roots at 5.0 x 10^-4 mol/l measured 15 days after seed sowing under greenhouse trials (reference value: 31.0 mg)
Type: functional
Details: not given

| SMILES | Activity [mg] |
| --- | --- |
| CC12OC(C3OOC1O3)C1CCCCC2C1=O (mixture of isomers) | 10.6 |
| CC12OOC(O1)C1OC2(C)C2CCCCC1C2=O (mixture of isomers) | 13.2 |
| CC1CCC23OOC(C)(O2)C2OC3(C1)C(C)C(=O)C2C (mixture of isomers) | 15.3 |
| CCC1C(=O)C(CC)C23CC(C)CCC24OOC(C)(O4)C1O3 (mixture of isomers) | 29 |

Test system: Sorghum bicolor
Assay: Phytotoxic activity against Sorghum bicolor seedlings assessed as germination at 5x10'-4 mol/l at 28 +/-1 degC after 48 hr by acid-washed sand based radicle elongation assay (reference value: 100%)
Type: functional
Details: not given

| SMILES | germination % at 500 µM [%] |
| --- | --- |
| CC12OC(C3OOC1O3)C1CCCCC2C1=O (mixture of isomers) | 96 |
| CC12OOC(O1)C1OC2(C)C2CCCCC1C2=O (mixture of isomers) | 100 |
| CC1CCC23OOC(C)(O2)C2OC3(C1)C(C)C(=O)C2C (mixture of isomers) | 96 |
| CCC1C(=O)C(CC)C23CC(C)CCC24OOC(C)(O4)C1O3 (mixture of isomers) | 100 |

Test system: Cucumis sativus
Assay: Phytotoxic activity against Cucumis sativus (cucumber) assessed as root growth inhibition at 5.0 x 10^-4 mol/l measured 15 days after seed sowing under greenhouse trials (reference value: 0.0%)
Type: functional
Details: 360 h

| SMILES | inhibition at 500 µM [%] |
| --- | --- |
| CC12OC(C3OOC1O3)C1CCCCC2C1=O (mixture of isomers) | 65.9 |
| CC12OOC(O1)C1OC2(C)C2CCCCC1C2=O (mixture of isomers) | 57.4 |
| CC1CCC23OOC(C)(O2)C2OC3(C1)C(C)C(=O)C2C (mixture of isomers) | 50.8 |
| CCC1C(=O)C(CC)C23CC(C)CCC24OOC(C)(O4)C1O3 (mixture of isomers) | 6.5 |

Test system: Sorghum bicolor
Assay: Phytotoxic activity against Sorghum bicolor assessed as aerial part growth inhibition at 5.0 x 10^-4 mol/l measured 15 days after seed sowing under greenhouse trials (reference value: 0.0%)
Type: functional
Details: 360 h

| SMILES | inhibition at 500 µM [%] |
| --- | --- |
| CC12OC(C3OOC1O3)C1CCCCC2C1=O (mixture of isomers) | 20 |
| CC12OOC(O1)C1OC2(C)C2CCCCC1C2=O (mixture of isomers) | 41.8 |
| CC1CCC23OOC(C)(O2)C2OC3(C1)C(C)C(=O)C2C (mixture of isomers) | 6.8 |
| CCC1C(=O)C(CC)C23CC(C)CCC24OOC(C)(O4)C1O3 (mixture of isomers) | 39.6 |
